In paper PMC5564600 (Oncotarget, 2017):
Values after ≈ are worked out from the molar mass of the structure shown. One block for each compound: values may come before it.

Tests used:
PI3Kγ = PI3Kγ (Homo sapiens, UniProt P48736); experiment: PI3K (human) HTRF assay, PI3Kγ; type: biochemical; details: ATP 10 μM, mean ± SEM
[1] = Plasma pharmacokinetics of SN32976 and stable major metabolites in mice (30 mg/kg oral); details: mouse plasma, 30 mg/kg SN32976 oral gavage
[2] = Metabolite identification in mouse liver microsomes; type: in vitro ADME; details: 10 μM SN32976, 60 min
[3] = Metabolite identification in dog liver microsomes; type: in vitro ADME; details: 10 μM SN32976, 60 min
[4] = Metabolite identification in human liver microsomes; type: in vitro ADME; details: 10 μM SN32976, 60 min
[5] = Metabolite identification in rat liver microsomes; type: in vitro ADME; details: 10 μM SN32976, 60 min
[6] = Metabolite identification in monkey liver microsomes; type: in vitro ADME, Cynomolgus monkey; details: 10 μM SN32976, 60 min
PI3Kα [7] = test system: PI3Kα; design: method as in PMID 23726034, PMID 23275335; details: cited from earlier work
PI3Kα [8] = target: PI3Kα (Homo sapiens, UniProt P42336); experiment: PI3K (human) HTRF assay, PI3Kα; type: biochemical
[9] = Tumor and plasma concentrations of SN32976 and major metabolites in mice with U-87 MG tumors after multiple doses; details: multiple doses of 100 mg/kg SN32976
PI3Kβ = PI3Kβ (Homo sapiens, UniProt P42338); experiment: PI3K (human) HTRF assay, PI3Kβ; type: biochemical; details: ATP 10 μM, mean ± SEM
PI3Kδ = PI3Kδ (Homo sapiens, UniProt O00329); experiment: PI3K (human) HTRF assay, PI3Kδ; type: biochemical; details: ATP 10 μM, mean ± SEM
mTOR = mTOR (Homo sapiens, UniProt P42345); experiment: SelectScreen Z'LYTE kinase assay (Invitrogen), mTOR; type: biochemical; details: determined by Invitrogen, mean ± SEM, n=2
CYP3A4 [10] = experiment: Cytochrome P450 induction in cultured hepatocytes (mRNA, qRT-PCR), CYP3A4; type: in vitro ADME; details: at 10 μM, hepatocytes 72 h, mean ± SD
CYP1A2 [11] = target: T1, CYP1A2 (Homo sapiens, UniProt P05177); experiment: Cytochrome P450 inhibition in human liver microsomes, CYP1A2; type: in vitro ADME; details: read-out: CYP inhibition 1A2 IC50
T1 construct: was evaluated in human liver microsomes incubated with SN32976; tissue Cyprotex (contract research organization); host or cells: human liver microsomes

[12] = Solubility in potassium phosphate buffer; type: physicochemical; details: aqueous buffer, thermodynamic from solid
CYP2C19 = target: T2, CYP2C19 (Homo sapiens, UniProt P33261); experiment: Cytochrome P450 inhibition in human liver microsomes, CYP2C19; type: in vitro ADME; details: read-out: CYP inhibition 2C19 IC50
T2 construct: was evaluated in human liver microsomes incubated with SN32976; tissue Cyprotex (contract research organization); host or cells: human liver microsomes

[13] = Plasma pharmacokinetics in rats; details: male, Sprague-Dawley, rat, po, 10 mg/kg
PIK3C2B = target: T3, PIK3C2B (Homo sapiens, UniProt O00750); experiment: KINOMEscan, PIK3C2B; type: binding; details: 10 μM
T3 construct: purchased Ambit Biosciences (scanMAXX KINOMEscan)

CYP2B6 = experiment: Cytochrome P450 induction in cultured hepatocytes (mRNA, qRT-PCR), CYP2B6; type: in vitro ADME; details: at 10 μM, hepatocytes 72 h, mean ± SD
[14] = Plasma pharmacokinetics in dogs; details: male, Beagle, dog, po, 10 mg/kg
[15] = Plasma pharmacokinetics in mice; details: male, CD1, mouse, po, 20 mg/kg
CYP2D6 = target: T4, CYP2D6 (Homo sapiens, UniProt P10635); experiment: Cytochrome P450 inhibition in human liver microsomes, CYP2D6; type: in vitro ADME; details: read-out: CYP inhibition 2D6 IC50
T4 construct: was evaluated in human liver microsomes incubated with SN32976; tissue Cyprotex (contract research organization); host or cells: human liver microsomes

[16] = Rat dose proportionality study (oral); details: male, Sprague-Dawley, plasma
CYP2C9 = target: T5, CYP2C9 (Homo sapiens, UniProt P11712); experiment: Cytochrome P450 inhibition in human liver microsomes, CYP2C9; type: in vitro ADME; details: mean ± SD, read-out: CYP inhibition 2C9 IC50
T5 construct: was evaluated in human liver microsomes incubated with SN32976; tissue Cyprotex (contract research organization); host or cells: human liver microsomes

CYP1A2 [17] = experiment: Cytochrome P450 induction in cultured hepatocytes (mRNA, qRT-PCR), CYP1A2; type: in vitro ADME; details: at 10 μM, hepatocytes 72 h, mean ± SD
CYP3A4 [18] = target: T6, CYP3A4 (Homo sapiens, UniProt P08684); experiment: Cytochrome P450 inhibition in human liver microsomes, CYP3A4; type: in vitro ADME; details: read-out: CYP inhibition 3A4 IC50
T6 construct: was evaluated in human liver microsomes incubated with SN32976; tissue Cyprotex (contract research organization); host or cells: human liver microsomes

PIK3C2G = target: T7, PIK3C2G (Homo sapiens, UniProt O75747); experiment: KINOMEscan, PIK3C2G; type: binding; details: 10 μM
T7 construct: purchased Ambit Biosciences (scanMAXX KINOMEscan)
T7 sequence (O75747 1-1486): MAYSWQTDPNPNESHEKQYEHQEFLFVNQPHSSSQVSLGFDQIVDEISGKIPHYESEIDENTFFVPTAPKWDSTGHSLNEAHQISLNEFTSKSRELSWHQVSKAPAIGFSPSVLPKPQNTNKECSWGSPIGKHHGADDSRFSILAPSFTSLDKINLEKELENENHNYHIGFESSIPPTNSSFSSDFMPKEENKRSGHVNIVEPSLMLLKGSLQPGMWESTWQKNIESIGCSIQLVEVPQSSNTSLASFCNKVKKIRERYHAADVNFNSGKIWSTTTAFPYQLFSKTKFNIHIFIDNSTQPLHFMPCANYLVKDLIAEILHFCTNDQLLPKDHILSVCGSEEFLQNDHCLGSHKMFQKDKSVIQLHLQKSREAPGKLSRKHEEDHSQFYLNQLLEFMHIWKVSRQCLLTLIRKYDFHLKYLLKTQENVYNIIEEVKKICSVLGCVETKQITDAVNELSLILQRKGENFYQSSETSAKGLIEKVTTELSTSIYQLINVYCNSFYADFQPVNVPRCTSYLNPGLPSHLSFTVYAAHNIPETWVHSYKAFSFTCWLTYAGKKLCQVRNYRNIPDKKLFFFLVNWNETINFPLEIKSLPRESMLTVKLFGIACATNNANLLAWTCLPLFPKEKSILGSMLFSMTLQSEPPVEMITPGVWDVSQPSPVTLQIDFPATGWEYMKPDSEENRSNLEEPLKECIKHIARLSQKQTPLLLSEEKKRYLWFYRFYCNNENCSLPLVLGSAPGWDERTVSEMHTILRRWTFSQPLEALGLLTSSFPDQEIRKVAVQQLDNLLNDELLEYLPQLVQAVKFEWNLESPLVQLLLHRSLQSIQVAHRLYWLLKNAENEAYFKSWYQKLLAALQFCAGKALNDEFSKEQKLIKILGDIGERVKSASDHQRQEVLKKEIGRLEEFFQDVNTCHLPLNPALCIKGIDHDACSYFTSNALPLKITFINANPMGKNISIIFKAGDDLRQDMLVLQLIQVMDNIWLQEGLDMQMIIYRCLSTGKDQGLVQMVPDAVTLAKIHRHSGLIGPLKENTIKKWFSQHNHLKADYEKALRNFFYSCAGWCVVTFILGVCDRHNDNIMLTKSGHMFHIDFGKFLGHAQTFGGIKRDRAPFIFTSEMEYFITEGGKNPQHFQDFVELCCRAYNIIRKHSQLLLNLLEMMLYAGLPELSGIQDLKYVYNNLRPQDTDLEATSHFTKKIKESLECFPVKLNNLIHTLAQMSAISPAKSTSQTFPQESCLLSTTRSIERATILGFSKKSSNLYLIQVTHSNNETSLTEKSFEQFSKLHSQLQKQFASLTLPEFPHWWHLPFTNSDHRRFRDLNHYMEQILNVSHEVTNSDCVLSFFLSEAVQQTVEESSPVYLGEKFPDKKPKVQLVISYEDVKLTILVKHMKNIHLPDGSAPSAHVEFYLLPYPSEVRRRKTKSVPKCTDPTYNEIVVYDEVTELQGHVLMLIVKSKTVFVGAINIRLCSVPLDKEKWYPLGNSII

Sequence of PI3Kγ (P48736 whole entry): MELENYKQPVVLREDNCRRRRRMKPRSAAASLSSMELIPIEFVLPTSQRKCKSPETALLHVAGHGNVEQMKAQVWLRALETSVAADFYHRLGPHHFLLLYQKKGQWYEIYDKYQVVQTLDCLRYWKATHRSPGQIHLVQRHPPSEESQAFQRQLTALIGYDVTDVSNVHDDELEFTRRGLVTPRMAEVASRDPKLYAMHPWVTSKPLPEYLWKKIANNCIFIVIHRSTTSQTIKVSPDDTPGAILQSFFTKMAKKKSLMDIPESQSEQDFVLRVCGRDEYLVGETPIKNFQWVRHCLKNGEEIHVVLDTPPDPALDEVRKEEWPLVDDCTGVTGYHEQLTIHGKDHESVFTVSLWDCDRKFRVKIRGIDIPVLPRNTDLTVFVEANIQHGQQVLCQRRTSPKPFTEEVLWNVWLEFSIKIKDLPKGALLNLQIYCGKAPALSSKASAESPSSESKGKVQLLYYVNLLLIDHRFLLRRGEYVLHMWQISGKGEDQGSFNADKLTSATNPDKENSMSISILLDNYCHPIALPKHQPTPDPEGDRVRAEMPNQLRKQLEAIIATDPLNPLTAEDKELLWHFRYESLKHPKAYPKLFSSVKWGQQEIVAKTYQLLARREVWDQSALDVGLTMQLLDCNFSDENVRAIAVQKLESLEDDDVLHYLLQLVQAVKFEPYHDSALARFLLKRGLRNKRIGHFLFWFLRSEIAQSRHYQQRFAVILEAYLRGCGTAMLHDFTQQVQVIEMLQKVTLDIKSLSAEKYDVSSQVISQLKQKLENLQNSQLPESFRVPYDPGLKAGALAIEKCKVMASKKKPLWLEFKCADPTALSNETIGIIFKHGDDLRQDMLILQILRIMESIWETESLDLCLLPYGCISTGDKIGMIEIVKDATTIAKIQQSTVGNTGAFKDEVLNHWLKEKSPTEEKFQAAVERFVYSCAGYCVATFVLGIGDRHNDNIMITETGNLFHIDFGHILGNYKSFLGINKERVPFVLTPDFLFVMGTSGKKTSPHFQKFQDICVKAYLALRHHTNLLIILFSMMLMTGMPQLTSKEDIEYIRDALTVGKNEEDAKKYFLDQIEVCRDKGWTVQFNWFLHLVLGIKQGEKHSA
Sequence of PI3Kβ (P42338 whole entry): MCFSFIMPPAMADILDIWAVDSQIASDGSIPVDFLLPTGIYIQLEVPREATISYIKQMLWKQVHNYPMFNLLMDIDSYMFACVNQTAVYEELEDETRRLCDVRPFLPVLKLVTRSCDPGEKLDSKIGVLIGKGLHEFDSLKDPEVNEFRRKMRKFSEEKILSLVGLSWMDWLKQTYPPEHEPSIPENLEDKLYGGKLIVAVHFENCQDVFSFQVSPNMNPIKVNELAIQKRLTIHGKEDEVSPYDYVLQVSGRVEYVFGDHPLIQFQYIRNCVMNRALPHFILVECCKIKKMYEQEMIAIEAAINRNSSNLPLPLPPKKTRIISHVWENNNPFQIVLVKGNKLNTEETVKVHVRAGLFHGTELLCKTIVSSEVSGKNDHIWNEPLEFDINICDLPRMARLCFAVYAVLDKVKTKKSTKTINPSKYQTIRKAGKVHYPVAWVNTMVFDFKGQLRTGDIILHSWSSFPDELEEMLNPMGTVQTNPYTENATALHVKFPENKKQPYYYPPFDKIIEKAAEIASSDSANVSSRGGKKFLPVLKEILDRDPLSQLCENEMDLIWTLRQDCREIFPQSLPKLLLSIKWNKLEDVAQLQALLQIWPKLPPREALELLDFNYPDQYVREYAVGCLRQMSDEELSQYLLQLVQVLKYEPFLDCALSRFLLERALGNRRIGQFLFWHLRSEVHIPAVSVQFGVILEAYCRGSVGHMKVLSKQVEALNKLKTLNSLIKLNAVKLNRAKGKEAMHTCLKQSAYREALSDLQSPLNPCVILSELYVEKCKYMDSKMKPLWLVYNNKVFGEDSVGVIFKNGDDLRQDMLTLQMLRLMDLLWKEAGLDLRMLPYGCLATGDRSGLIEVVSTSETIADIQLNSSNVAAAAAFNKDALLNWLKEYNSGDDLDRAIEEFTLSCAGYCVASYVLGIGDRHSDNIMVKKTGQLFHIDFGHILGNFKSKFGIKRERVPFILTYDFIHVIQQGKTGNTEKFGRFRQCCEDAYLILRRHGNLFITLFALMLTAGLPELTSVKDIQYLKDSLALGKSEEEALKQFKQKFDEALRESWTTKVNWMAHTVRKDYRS
Sequence of PI3Kβ (P27986 whole entry partner): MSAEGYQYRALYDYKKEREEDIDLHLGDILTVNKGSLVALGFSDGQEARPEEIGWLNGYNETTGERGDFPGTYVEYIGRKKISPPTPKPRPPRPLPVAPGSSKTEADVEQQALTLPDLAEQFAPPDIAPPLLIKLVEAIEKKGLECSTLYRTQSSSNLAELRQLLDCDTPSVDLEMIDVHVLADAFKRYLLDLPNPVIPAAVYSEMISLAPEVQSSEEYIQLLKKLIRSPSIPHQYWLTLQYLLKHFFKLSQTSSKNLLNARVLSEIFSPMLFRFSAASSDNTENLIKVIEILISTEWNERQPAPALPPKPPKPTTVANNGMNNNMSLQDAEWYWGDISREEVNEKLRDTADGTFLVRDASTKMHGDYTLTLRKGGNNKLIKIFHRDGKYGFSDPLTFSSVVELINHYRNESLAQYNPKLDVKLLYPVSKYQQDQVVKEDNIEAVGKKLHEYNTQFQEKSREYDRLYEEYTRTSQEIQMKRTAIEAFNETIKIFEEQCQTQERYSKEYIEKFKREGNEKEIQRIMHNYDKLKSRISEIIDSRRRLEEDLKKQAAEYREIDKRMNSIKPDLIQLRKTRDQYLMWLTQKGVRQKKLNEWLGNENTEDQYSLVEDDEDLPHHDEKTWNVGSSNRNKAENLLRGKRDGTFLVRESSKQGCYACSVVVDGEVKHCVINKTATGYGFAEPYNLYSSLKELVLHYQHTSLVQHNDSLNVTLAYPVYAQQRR
Sequence of PI3Kα (Homo sapiens, UniProt P42336) (P42336 whole entry): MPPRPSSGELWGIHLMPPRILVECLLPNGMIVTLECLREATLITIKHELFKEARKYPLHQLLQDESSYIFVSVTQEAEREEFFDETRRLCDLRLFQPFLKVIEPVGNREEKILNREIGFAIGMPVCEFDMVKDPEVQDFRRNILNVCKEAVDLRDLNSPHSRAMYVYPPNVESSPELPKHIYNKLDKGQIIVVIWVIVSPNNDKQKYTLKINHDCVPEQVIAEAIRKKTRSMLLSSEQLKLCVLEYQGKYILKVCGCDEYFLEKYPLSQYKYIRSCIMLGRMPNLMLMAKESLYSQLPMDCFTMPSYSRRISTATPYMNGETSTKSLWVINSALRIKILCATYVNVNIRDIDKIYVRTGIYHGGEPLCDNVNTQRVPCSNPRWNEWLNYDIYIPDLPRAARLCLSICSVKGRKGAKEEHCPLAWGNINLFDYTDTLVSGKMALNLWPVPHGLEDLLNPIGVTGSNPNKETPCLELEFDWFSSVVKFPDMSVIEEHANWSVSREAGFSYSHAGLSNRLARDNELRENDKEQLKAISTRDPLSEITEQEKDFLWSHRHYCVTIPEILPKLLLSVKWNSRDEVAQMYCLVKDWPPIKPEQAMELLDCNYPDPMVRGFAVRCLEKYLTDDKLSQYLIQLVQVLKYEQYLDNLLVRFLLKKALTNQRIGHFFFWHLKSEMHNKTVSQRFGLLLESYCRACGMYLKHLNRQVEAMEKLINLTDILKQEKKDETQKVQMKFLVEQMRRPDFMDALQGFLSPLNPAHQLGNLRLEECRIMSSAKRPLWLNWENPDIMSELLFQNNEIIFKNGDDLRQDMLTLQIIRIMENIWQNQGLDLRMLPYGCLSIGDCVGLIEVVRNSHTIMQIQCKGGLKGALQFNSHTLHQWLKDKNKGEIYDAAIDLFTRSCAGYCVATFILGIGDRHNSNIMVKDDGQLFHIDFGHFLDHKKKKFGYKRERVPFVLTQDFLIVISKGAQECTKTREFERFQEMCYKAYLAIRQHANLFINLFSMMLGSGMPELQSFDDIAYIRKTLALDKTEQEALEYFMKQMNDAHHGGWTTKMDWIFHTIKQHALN
Sequence of PI3Kα (Homo sapiens, UniProt P42336) (P27986 whole entry partner): as the sequence (P27986 whole entry partner) above
T4 sequence (P10635 whole entry): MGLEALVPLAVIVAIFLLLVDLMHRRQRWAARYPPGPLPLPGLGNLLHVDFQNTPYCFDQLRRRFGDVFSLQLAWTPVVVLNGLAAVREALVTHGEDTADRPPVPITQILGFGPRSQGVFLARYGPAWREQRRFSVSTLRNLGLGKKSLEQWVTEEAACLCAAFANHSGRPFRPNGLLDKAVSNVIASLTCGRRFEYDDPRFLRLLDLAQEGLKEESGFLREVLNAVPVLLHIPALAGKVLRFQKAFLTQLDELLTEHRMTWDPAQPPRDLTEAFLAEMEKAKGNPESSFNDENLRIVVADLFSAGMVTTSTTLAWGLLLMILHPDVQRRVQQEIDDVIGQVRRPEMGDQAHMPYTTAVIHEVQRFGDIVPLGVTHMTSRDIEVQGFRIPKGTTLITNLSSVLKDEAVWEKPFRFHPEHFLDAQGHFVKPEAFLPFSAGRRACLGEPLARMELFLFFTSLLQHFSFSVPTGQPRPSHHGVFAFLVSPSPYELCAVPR
T2 sequence (P33261 whole entry): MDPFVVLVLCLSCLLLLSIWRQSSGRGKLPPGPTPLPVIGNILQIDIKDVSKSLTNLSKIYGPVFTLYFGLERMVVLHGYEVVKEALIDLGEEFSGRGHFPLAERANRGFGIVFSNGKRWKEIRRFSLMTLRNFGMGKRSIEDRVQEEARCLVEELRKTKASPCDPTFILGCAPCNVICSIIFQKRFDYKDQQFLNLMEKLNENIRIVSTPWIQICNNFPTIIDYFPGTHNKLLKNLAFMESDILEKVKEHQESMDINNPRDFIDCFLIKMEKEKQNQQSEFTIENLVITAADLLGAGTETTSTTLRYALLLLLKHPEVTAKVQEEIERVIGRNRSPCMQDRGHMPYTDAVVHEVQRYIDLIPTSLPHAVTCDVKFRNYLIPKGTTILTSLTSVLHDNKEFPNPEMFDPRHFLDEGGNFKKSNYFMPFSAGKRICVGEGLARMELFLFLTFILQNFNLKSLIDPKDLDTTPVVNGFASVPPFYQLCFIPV

Compound: COc1cccc2c1nc(C(F)F)n2-c1nc(N2CCOCC2)nc(N2CCN(S(=O)(=O)CCN)CC2)n1 [M8]
IC50 (PI3Kγ): 68 ± 18.6 nM
contribution to combined plasma AUC [1]: 0.13%

metabolite quantity in liver microsomes (relative peak area class) [2]: major (major (>10% relative peak areas))
metabolite quantity in liver microsomes (relative peak area class) [5]: major (major (>10% relative peak areas))
Compound: COc1cccc2c1nc(C(F)F)n2-c1nc(N2CCOCC2)nc(N2CCN(S(=O)(=O)CC[N+](C)(C)[O-])CC2)n1 [M10]
metabolite quantity in liver microsomes (relative peak area class) [3]: minor (minor (1-10% relative peak areas))
metabolite quantity in liver microsomes (relative peak area class) [4]: trace (trace (<1% relative peak areas in the total ion chromatograph))
metabolite quantity in liver microsomes (relative peak area class) [6]: minor (minor (1-10% relative peak areas))

Compound: Cc1nc(NC(=O)N2CCC[C@H]2C(N)=O)sc1-c1ccnc(C(C)(C)C(F)(F)F)c1 [alpelisib]
selectivity for PI3Kα over other class I PI3K isoforms and mTOR (PI3Kα [7]): > 50 fold

IC50 (PI3Kα [8]; HTRF assay, ATP 10 μM, mean ± SEM): 6.2 ± 0.5 nM
selectivity for PI3Kα over all other PI3K isoforms and mTOR (PI3Kα [8]; ratio of biochemical IC50): 4.2 fold
metabolite AUC relative to parent in plasma [9]: 8.8 % of parent
metabolite AUC relative to parent in tumor [9]: 2.4 % of parent
IC50 (PI3Kγ): 26.3 ± 2.6 nM
IC50 (PI3Kβ): > 1000 nM
IC50 PI3Kβ (PI3Kβ): lacked activity
metabolite quantity in liver microsomes (relative peak area class) [2]: major (major (>10% relative peak areas))
IC50 (PI3Kδ): 55 ± 24.1 nM
metabolite quantity in liver microsomes (relative peak area class) [3]: major (major (>10% relative peak areas))
metabolite quantity in liver microsomes (relative peak area class) [4]: major (major (>10% relative peak areas))
contribution to combined plasma AUC [1]: 1.0%
metabolite quantity in liver microsomes (relative peak area class) [5]: major (major (>10% relative peak areas))
metabolite quantity in liver microsomes (relative peak area class) [6]: major (major (>10% relative peak areas))
IC50 (mTOR): 74.9 ± 25.1 nM
Compound: C=CS(=O)(=O)N1CCN(c2nc(N3CCOCC3)nc(-n3c(C(F)F)nc4c(OC)cccc43)n2)CC1 [M17]

Compound: COc1cccc2c1nc(C(F)F)n2-c1nc(N2CCOCC2)nc(N2CCN(S(=O)(=O)CCN(C)C)CC2)n1 [SN32976, 2-((4-(4-(2-(difluoromethyl)-4-methoxy-1H-benzo[d]imidazol-1-yl)-6-morpholino-1,3,5-triazin-2-yl)piperazin-1-yl)sulfonyl)-N, N-dimethylethan-1-amine]
IC50 (PI3Kγ): 110 ± 41 nM
CYP induction 3A4 (CYP3A4 [10]): 1.39 ± 0.21
IC50 (CYP1A2 [11]): > 25000 nM
solubility ([12]; pH 2.0): > 100000 µM
solubility ([12]; pH 7.4, mean ± SD): 11.2 µM (≈ 6.51 µg/mL)
IC50 (CYP2C19): > 25000 nM
AUC [13]: 0.579 µM·h
bioavailability [13]: 8.1%
off-target activity against PIK3C2B (PIK3C2B): off-target activity
CYP induction 2B6 (CYP2B6): 0.31 ± 0.01
contribution to combined plasma AUC [1]: 71.8%
AUC [14]: 3.22 µM·h
bioavailability [14]: 35.9%
AUC [15]: 2.5 µM·h
bioavailability [15]: 33.4%
IC50 (CYP2D6): > 25000 nM
AUC ([16]; 10 mg/kg): 0.417 µM·h
Cmax ([16]; 10 mg/kg): 34.1 nM
Tmax ([16]; 10 mg/kg): 4 h
half-life ([16]; 10 mg/kg): 2.27 h
AUC ([16]; 30 mg/kg): 1.07 µM·h
Cmax ([16]; 30 mg/kg): 125 nM
Tmax ([16]; 30 mg/kg): 1 h
half-life ([16]; 30 mg/kg): 4.62 h
AUC ([16]; 100 mg/kg): 16.4 µM·h
Cmax ([16]; 100 mg/kg): 893 nM
Tmax ([16]; 100 mg/kg): 1 h
half-life ([16]; 100 mg/kg): 9.77 h
AUC ([16]; 300 mg/kg): 139 µM·h
Cmax ([16]; 300 mg/kg): 6810 nM
Tmax ([16]; 300 mg/kg): 4 h
IC50 (CYP2C9): 20000 nM
CYP induction 1A2 (CYP1A2 [17]): 1.27 ± 0.01
IC50 (CYP3A4 [18]): > 25000 nM
off-target activity against PIK3C2G (PIK3C2G): off-target activity
IC50 (mTOR): 194 ± 55 nM

Compound: CNCCS(=O)(=O)N1CCN(c2nc(N3CCOCC3)nc(-n3c(C(F)F)nc4c(OC)cccc43)n2)CC1 [M9]
IC50 (PI3Kγ): 90.3 ± 17.1 nM
contribution to combined plasma AUC [1]: 27.1%
IC50 (mTOR): 244 ± 56 nM

Compound: Nc1nc2cc(-c3ccc4ncc(C(=O)N5CCOCC5)n4c3)ccc2o1 [serabelisib]
selectivity for PI3Kα over other class I PI3K isoforms and mTOR (PI3Kα [7]): > 50 fold
